Test results: ChEMBL document CHEMBL1152817, “Prevention of organ allograft rejection by a specific Janus kinase 3 inhibitor” (Science, 2003)

Legend:
[1] = tested on: T-cell; experiment: cells; conditions: Homo sapiens
Description: Inhibition of IL2-induced proliferation of human T cells assessed as [3H]thymidine incorporation after 72 hrs by scintillation counting

[2] = tested on: HFF; experiment: cells; conditions: Homo sapiens
Description: Inhibition of fetal calf serum-induced proliferation of human foreskin fibroblast assessed as [3H]thymidine incorporation after 4 days by scintillation counting

[3] = molecular target: Tyrosine-protein kinase JAK2 (Homo sapiens, UniProt O60674)
[4] = molecular target: Tyrosine-protein kinase JAK1 (Homo sapiens, UniProt P23458)
[5] = cells; conditions: Homo sapiens, HUO3
Description: Inhibition of human GM-CSF-induced proliferation in human HUO3 cells assessed as [3H]thymidine incorporation after 4 days by scintillation counting

Tyrosine-protein kinase JAK1, sequence (P23458 whole entry): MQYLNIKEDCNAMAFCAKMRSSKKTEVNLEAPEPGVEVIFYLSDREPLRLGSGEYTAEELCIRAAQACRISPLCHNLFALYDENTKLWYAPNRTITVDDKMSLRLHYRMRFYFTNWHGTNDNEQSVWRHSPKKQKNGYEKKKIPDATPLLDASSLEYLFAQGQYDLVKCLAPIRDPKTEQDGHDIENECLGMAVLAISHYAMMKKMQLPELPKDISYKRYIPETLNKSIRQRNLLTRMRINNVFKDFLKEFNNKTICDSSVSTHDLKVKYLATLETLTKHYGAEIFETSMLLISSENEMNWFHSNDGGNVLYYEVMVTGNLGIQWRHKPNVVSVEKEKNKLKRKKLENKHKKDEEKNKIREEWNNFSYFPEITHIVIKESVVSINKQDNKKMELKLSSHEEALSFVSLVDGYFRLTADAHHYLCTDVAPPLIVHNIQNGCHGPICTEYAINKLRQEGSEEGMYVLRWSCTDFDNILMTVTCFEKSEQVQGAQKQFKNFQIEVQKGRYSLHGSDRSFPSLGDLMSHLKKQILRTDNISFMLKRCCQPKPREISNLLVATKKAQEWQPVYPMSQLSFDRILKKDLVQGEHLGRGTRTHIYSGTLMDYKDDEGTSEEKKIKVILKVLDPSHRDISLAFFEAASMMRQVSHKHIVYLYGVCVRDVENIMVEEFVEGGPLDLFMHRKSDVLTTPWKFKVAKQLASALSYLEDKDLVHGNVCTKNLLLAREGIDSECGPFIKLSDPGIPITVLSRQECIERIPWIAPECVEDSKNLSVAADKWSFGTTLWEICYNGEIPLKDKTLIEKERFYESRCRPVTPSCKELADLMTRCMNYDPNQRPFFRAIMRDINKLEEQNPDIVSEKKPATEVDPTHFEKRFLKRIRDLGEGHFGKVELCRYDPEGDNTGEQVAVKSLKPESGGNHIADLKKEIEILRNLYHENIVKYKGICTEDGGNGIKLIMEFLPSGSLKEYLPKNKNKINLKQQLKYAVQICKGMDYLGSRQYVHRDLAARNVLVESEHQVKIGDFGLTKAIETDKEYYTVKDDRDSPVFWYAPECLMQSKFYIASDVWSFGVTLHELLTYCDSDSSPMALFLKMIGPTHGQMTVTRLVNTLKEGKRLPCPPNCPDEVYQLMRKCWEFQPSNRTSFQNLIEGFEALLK
Tyrosine-protein kinase JAK2, sequence (O60674 whole entry): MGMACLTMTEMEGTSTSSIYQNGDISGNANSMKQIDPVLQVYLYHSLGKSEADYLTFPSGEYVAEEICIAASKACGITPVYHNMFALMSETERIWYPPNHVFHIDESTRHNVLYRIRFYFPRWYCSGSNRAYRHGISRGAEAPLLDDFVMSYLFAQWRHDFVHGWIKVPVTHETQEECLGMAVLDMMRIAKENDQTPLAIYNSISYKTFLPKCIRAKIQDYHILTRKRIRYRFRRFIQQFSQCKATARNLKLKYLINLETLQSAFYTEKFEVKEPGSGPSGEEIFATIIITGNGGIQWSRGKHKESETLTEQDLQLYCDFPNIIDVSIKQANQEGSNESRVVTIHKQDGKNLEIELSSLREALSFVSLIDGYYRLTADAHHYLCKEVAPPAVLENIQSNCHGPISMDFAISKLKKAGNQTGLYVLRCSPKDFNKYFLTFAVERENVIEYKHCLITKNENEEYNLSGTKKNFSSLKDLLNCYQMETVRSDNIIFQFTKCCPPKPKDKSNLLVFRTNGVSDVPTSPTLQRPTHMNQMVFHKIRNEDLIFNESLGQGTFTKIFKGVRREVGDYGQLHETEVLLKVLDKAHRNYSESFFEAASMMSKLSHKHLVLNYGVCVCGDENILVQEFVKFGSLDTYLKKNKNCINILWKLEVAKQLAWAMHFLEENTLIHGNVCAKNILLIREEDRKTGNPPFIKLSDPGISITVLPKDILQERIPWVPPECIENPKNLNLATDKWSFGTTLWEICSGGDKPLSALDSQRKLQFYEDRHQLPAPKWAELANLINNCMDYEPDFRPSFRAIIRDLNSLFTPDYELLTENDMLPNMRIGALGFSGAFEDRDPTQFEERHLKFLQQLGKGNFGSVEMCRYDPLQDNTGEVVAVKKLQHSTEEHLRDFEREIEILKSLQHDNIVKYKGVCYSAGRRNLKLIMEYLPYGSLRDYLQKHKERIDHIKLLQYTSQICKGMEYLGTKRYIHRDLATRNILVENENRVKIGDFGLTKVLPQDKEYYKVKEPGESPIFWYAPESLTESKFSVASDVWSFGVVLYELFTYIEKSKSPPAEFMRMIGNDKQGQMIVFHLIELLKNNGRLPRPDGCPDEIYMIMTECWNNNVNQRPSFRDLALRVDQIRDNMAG

Compound | IC50 [1] | IC50 [2] | IC50 [3] | IC50 [4] | IC50 [5]
c1ccc2c(c1)C1CCCCC1N2c1ncnc2[nH]ccc12 (stereo not given) | 3.69 µM | 10 µM |  |  | 
COc1cc2ncnc(Nc3ccc(O)c(Br)c3)c2cc1OC | 5.09 µM | 6.34 µM | > 10 µM | > 10 µM | 
N#C/C(=C\c1ccc(O)c(O)c1)C(=O)NCc1ccccc1 | 3.75 µM | 5.58 µM | > 10 µM | 3.38 µM | 7.56 µM
COc1cc2ncnc(Nc3ccc(O)cc3)c2cc1OC [WHI-P131] | > 10 µM |  | > 10 µM | > 10 µM | > 10 µM
